How the values were obtained:
[1] = target: 5-hydroxytryptamine receptor 2B (Homo sapiens, UniProt P41595); test: biochemical
Description: Displacement of [3H]LSD from 5HT2B receptor expressed in HEK293 EBNA cells by radioligand binding assay

[2] = target: T1, Alpha-1A adrenergic receptor (Homo sapiens, UniProt P35348); test: biochemical
T1 sequence (P35348 whole entry): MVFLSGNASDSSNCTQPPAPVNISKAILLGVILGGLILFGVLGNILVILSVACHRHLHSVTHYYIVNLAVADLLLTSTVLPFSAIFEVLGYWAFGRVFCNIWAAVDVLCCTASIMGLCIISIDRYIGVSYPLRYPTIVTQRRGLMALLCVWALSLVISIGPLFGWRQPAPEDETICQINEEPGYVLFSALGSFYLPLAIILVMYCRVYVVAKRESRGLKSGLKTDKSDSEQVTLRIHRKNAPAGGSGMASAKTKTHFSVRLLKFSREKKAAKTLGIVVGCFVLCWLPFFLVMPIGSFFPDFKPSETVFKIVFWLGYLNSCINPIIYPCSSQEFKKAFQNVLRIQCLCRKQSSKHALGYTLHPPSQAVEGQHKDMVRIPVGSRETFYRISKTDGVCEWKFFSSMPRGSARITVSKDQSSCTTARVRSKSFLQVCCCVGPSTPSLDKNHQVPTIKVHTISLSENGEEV
Description: Displacement of [3H]prazosin from alpha1A receptor expressed in HEK293 EBNA cells by radioligand binding assay

[3] = target: 5-hydroxytryptamine receptor 7 (Homo sapiens, UniProt P34969); test: biochemical
5-hydroxytryptamine receptor 7, sequence (P34969 whole entry): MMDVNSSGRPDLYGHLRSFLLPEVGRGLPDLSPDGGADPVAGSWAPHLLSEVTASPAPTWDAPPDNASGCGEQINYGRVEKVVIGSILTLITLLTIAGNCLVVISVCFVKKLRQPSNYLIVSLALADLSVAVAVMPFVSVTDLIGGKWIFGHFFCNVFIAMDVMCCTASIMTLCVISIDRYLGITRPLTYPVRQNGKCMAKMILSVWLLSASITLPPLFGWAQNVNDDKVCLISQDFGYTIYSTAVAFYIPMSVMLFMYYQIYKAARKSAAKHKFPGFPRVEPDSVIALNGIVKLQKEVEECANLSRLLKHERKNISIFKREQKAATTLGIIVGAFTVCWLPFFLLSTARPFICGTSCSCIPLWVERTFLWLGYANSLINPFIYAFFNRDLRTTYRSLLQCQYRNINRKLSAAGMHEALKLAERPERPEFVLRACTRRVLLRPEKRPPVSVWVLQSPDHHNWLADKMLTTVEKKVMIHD
Description: Displacement of [3H]LSD from 5HT7 receptor expressed in HEK293 EBNA cells by radioligand binding assay

D(4) dopamine receptor = target: T2, D(4) dopamine receptor (Homo sapiens, UniProt P21917); test: biochemical
T2 sequence (P21917 whole entry): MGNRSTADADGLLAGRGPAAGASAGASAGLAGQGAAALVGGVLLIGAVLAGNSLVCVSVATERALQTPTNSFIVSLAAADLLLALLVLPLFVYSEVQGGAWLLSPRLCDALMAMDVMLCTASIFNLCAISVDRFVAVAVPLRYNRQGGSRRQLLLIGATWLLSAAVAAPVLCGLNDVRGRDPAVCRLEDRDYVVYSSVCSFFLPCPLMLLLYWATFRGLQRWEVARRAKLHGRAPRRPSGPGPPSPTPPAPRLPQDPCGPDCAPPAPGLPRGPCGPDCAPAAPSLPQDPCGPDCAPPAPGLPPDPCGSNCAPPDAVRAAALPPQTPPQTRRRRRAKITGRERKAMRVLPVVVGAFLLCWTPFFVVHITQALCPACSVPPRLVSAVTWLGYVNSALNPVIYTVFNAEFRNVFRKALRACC
Description: Displacement of [3H]N-methylspiperone from dopamine D4 receptor expressed in HEK293 EBNA cells by radioligand binding assay

[4] = target: T3, 5-hydroxytryptamine receptor 1A (Homo sapiens, UniProt P08908); test: biochemical
T3 sequence (P08908 whole entry): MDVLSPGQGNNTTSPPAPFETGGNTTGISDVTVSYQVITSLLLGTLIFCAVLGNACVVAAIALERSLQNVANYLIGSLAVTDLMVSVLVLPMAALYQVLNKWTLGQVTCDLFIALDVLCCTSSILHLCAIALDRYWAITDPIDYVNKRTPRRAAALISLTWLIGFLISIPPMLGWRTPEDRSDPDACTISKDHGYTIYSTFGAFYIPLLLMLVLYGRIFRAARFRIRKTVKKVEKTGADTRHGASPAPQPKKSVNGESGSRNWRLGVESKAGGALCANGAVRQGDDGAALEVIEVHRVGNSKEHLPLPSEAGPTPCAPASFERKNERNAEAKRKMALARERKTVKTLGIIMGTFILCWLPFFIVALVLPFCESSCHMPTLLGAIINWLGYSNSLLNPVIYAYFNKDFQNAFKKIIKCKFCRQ
Description: Displacement of [3H]8-OH-DPAT from human 5HT1A receptor expressed in HEK293 EBNA cells after 2 hrs by liquid scintillation counting

[5] = target: 5-hydroxytryptamine receptor 1D (Homo sapiens, UniProt P28221); test: biochemical
5-hydroxytryptamine receptor 1D, sequence (P28221 whole entry): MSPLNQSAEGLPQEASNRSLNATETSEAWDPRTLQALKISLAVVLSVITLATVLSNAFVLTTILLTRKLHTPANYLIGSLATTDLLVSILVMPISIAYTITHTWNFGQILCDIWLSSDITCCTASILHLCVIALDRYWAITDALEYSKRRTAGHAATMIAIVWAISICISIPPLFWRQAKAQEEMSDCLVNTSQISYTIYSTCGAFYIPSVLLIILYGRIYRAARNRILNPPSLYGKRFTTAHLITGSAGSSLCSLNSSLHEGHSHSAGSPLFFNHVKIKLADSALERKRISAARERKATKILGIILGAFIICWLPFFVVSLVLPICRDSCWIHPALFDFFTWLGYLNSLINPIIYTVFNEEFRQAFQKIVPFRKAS
Description: Displacement of [3H]GR127543 from 5HT1D receptor expressed in HEK293 EBNA cells by radioligand binding assay

[6] = target: T4, Alpha-1D adrenergic receptor (Homo sapiens, UniProt P25100); test: biochemical
T4 sequence (P25100 whole entry): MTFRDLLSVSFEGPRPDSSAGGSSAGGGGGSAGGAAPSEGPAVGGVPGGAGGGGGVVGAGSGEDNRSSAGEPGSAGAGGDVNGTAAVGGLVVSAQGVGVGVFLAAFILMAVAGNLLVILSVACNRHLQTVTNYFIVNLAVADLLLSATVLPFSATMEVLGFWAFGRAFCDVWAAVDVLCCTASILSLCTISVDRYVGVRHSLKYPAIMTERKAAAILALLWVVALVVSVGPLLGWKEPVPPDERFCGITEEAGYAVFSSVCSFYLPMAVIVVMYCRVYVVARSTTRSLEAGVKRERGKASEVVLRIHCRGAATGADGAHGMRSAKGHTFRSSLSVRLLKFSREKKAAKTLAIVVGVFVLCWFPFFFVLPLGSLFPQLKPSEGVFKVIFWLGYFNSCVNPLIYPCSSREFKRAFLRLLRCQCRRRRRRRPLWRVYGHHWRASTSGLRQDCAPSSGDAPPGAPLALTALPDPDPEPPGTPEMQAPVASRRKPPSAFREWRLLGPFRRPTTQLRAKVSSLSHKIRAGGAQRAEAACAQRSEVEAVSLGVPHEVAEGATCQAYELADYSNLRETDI
Description: Displacement of [3H]prazosin from Alpha-1D receptor expressed in HEK293 EBNA cells by radioligand binding assay

[7] = target: T5, Alpha-1B adrenergic receptor (Homo sapiens, UniProt P35368); test: biochemical
T5 sequence (P35368 whole entry): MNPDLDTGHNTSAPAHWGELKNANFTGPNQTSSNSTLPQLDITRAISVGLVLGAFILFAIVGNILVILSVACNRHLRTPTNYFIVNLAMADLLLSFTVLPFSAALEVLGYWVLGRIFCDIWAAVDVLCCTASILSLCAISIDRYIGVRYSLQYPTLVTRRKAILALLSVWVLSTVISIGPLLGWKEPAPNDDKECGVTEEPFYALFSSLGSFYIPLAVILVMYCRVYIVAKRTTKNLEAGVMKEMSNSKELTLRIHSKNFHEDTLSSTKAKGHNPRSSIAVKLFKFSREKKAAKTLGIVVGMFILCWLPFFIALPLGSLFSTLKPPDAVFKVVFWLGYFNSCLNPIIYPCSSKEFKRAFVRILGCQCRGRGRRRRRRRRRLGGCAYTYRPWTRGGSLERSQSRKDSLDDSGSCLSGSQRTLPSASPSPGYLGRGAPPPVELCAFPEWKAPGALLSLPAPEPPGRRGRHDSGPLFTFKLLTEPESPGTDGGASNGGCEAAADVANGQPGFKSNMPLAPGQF
Description: Displacement of [3H]prazosin from Alpha-1B receptor expressed in HEK293 EBNA cells by radioligand binding assay

[8] = target: T3, 5-hydroxytryptamine receptor 1A; test: biochemical; remark: listed apart in the source
Description: Displacement of [3H]8-OH-DPAT from 5HT1A receptor expressed in HEK293 EBNA cells by radioligand binding assay

physchem = conditions: buffer, pH 7.4
Hepatocyte [9] = conditions: human, hepatocytes, 2.5 h
Description: Metabolic stability in human hepatocytes assessed as compound remaining at 50 MBq after 150 mins by radioactivity-based HPLC analysis

Hepatocyte [10] = conditions: human, hepatocytes, 1 h
Description: Metabolic stability in human hepatocytes assessed as compound remaining at 50 MBq after 60 mins by radioactivity-based HPLC analysis

Hepatocyte [11] = conditions: human, hepatocytes, 0.25 h
Description: Metabolic stability in human hepatocytes assessed as compound remaining at 50 MBq after 15 mins by radioactivity-based HPLC analysis

[12] = target: T1, Alpha-1A adrenergic receptor
Description: Binding affinity to alpha1A receptor

5-hydroxytryptamine receptor 2B, sequence (P41595 whole entry): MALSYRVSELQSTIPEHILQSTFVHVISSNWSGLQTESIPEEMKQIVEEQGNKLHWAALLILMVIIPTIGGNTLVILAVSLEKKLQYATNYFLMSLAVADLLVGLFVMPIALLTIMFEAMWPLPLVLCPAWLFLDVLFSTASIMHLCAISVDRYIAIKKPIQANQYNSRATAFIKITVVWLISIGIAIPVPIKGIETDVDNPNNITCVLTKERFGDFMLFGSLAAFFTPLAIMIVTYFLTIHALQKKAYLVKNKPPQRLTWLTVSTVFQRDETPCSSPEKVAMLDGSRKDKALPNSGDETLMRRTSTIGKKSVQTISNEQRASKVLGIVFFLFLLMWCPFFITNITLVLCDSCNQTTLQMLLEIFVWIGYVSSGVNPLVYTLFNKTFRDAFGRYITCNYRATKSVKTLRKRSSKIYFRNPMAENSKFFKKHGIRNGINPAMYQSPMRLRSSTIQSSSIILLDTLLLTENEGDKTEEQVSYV

Q: What does the source list for `COc1ccccc1N1CCN(CCN(C(=O)C23C4C5C2C2C3C4C52CF)c2ccccn2)CC1` (centres undefined)?
A: Ki [1]: 99 nM; Ki [2]: 16 nM; Ki [3]: 132 nM; Ki (D(4) dopamine receptor): 71 nM; IC50 [4]: 1.27 nM; Ki [4]: 0.54 nM; Ki [5]: 122 nM; Ki [6]: 27 nM; Ki [7]: 176 nM; Ki [8]: 0.2 nM; logD (physchem): 2.94

Q: With `COc1ccccc1N1CCN(CCN(C(=O)C23C4C5C2C2C3C4C52C[18F])c2ccccn2)CC1` (centres undefined) as the molecule, how does the Stability (Hepatocyte [9]) read?
A: 17.4%

Q: And the Stability (Hepatocyte [10])?
A: 30.7%

Q: What about the Stability (Hepatocyte [11]) of the same molecule?
A: 73.2%

Q: What does the source list for `O=C(N(CCN1CCN(c2ccccc2O)CC1)c1ccccn1)C12CCC(CF)(CC1)CC2`?
A: IC50 [4]: 1.76 nM; Ki [4]: 0.75 nM

Q: What does the source list for `COc1ccccc1N1CCN(CCN(C(=O)C23CCC(CF)(CC2)CC3)c2ccccn2)CC1`?
A: Ki [1]: 79 nM; Ki [2]: 74 nM; Ki [3]: 77 nM; Ki (D(4) dopamine receptor): 84 nM; IC50 [4]: 1.53 nM; Ki [4]: 0.65 nM; Ki [5]: 361 nM; Ki [6]: 73 nM; Ki [7]: 110 nM; Ki [8]: 1.1 nM; logD (physchem): 3.37

Q: Which Ki [12] does the source give for `COc1ccccc1N1CCN(CCN(C(=O)c2ccc([18F])cc2)c2ccccn2)CC1` here?
A: 151 nM

Q: And the Stability (Hepatocyte [9])?
A: 8.4%

Q: With `O=C(N(CCN1CCN(c2ccccc2O)CC1)c1ccccn1)C12C3C4C1C1C2C3C41CF` (centres undefined) as the molecule, how does the IC50 [4] read?
A: 1.35 nM

Q: What about the Ki [4] of the same molecule?
A: 0.58 nM

Q: For `O=C(N(CCN1CCN(c2ccccc2O)CC1)c1ccccn1)C12CCC(CF)(CC1)C2`, which IC50 [4] is on record?
A: 1.74 nM

Q: And the Ki [4]?
A: 0.74 nM

Q: With `COc1ccccc1N1CCN(CCN(C(=O)C23CC4CC(CC(CF)(C4)C2)C3)c2ccccn2)CC1` as the molecule, how does the IC50 [4] read?
A: 4.27 nM

Q: And the Ki [4]?
A: 1.82 nM

Q: With `COc1ccccc1N1CCN(CCN(C(=O)c2ccc([18F])c(C)c2)c2ccccn2)CC1` as the molecule, how does the Ki [12] read?
A: 13.2 nM

Q: Which results are given for `COc1ccccc1N1CCN(CCN(C(=O)C23CCC(CF)(CC2)C3)c2ccccn2)CC1`?
A: Ki [1]: 88 nM; Ki [2]: 36 nM; Ki [3]: 97 nM; Ki (D(4) dopamine receptor): 92 nM; IC50 [4]: 2.02 nM; Ki [4]: 0.86 nM; Ki [5]: 92 nM; Ki [6]: 19 nM; Ki [7]: 38 nM; Ki [8]: 0.9 nM; logD (physchem): 2.7

Q: Which IC50 [4] does the source give for `O=C(N(CCN1CCN(c2ccccc2O)CC1)c1ccccn1)C12CC3CC(CC(CF)(C3)C1)C2` here?
A: 2.59 nM

Q: And the Ki [4]?
A: 1.1 nM

— ChEMBL document CHEMBL1909551, “Design, synthesis and in vitro evaluation of bridgehead fluoromethyl analogs of N-{2-[4-(2-methoxyphenyl)piperazin-1-yl]ethyl}-N-(pyridin-2-yl)cyclohexanecarboxamide (WAY-100635) for the 5-HT(1A) receptor” (Eur J Med Chem, 2011)
